Reference: the supplement of paper PMC10307832

Key:
Experiment in all cases: relative viability (nuclei count vs DMSO), 5 days (fraction); higher = more cells survive
NPK76-II-72-1 = compound: CC1CC(=O)N(C2=CN=C(N=C2N1C3CCCC3)NC4=C(C=C(C=C4)C(=O)NC5CCN(CC5)C)OC)C [NPK76-II-72-1]
Outline: (§1)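 For viability, nuclei in each treated well were divided by nuclei in vehicle wells and the median across plates was taken. Lung cancer cell lines in 1536-well plates were pinned with five library-drug doses (not always all listed) spaced by √10, cultured 5 days without medium change, and imaged at 4× after Hoechst staining, with plates passing only at control CV below 25% and at least one doubling.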

BI-2536 = compound: CC[C@@H]1C(=O)N(C)c2cnc(Nc3ccc(C(=O)NC4CCN(C)CC4)cc3OC)nc2N1C1CCCC1 [BI-2536]
Outline: as §1

[1] = compound: CC1CC(=O)N(C2=CN=C(N=C2N1C3CCCC3)NC4=C(C=C(C=C4)C(=O)NC5CCN(CC5)C)OC)C [NPK76-II-72-1] + Cc1nc(NC(=O)N2CCC[C@H]2C(N)=O)sc1-c1ccnc(C(C)(C)C(F)(F)F)c1 [Alpelisib] (partner 2 µM)
Outline: (§2)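 Lung cancer cell lines were seeded in 1536-well plates and dosed by pin tool the next day, with either a single drug or a fixed anchor-drug dose combined with five library-drug doses (not always all listed) spaced in √10 steps. Five days later, one step fixed the cells and stained their nuclei (final 0.05% Triton X-100, 1% formaldehyde, 1 ug/ml Hoechst), and nuclei were counted on 4× images. Relative viability is the nuclei count in treated wells divided by the count in vehicle wells, and each value is the median of duplicate plates.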

BI-2536 + Bortezomib = compound: CC[C@@H]1C(=O)N(C)c2cnc(Nc3ccc(C(=O)NC4CCN(C)CC4)cc3OC)nc2N1C1CCCC1 [BI-2536] + CC(C)C[C@H](NC(=O)[C@H](Cc1ccccc1)NC(=O)c1cnccn1)B(O)O [Bortezomib] (partner 0.002 µM)
Outline: as §2

Cell Line | relative viability (NPK76-II-72-1; 0.01 µM) | relative viability (NPK76-II-72-1; 0.03162 µM) | relative viability (NPK76-II-72-1; 0.1 µM) | relative viability (NPK76-II-72-1; 0.3162 µM) | relative viability (NPK76-II-72-1; 1 µM) | relative viability (BI-2536; 0.01 µM) | relative viability (BI-2536; 0.03162 µM) | relative viability (BI-2536; 0.1 µM) | relative viability (BI-2536; 0.3162 µM) | relative viability (BI-2536; 1 µM) | relative viability ([1]; first compound 0.01 µM) | relative viability ([1]; first compound 0.03162 µM) | relative viability ([1]; first compound 0.1 µM) | relative viability ([1]; first compound 0.3162 µM) | relative viability ([1]; first compound 1 µM) | relative viability (BI-2536 + Bortezomib; first compound 0.01 µM) | relative viability (BI-2536 + Bortezomib; first compound 0.03162 µM) | relative viability (BI-2536 + Bortezomib; first compound 0.1 µM) | relative viability (BI-2536 + Bortezomib; first compound 0.3162 µM) | relative viability (BI-2536 + Bortezomib; first compound 1 µM)
NCI-H2126 | 0.966 | 1.06 | 0.999 | 0.996 | 1.09 | 1.02 | 0.991 | 0.656 | 0.314 | 0.245 | 0.759 | 0.81 | 0.752 | 0.71 | 0.734 | 1.19 | 1.1 | 1.05 | 0.636 | 0.227
EMC-BAC-2 | 0.916 | 0.96 | 0.981 | 0.921 | 1.05 | 0.979 | 1.03 | 0.505 | 0.238 | 0.246 | 0.723 | 0.764 | 0.786 | 0.668 | 0.774 | 1.08 | 1.11 | 1.06 | 0.628 | 0.172
NCI-H1993 | 0.827 | 0.981 | 0.942 | 0.89 | 1.09 | 1.04 | 0.793 | 0.543 | 0.684 | 0.587 | 0.706 | 0.65 | 0.62 | 0.655 | 0.664 | 1.2 | 1 | 0.536 | 0.696 | 0.646
NCI-H520 | 0.869 | 1.03 | 0.991 | 1.03 | 0.947 | 0.902 | 0.737 | 0.61 | 0.238 | 0.225 | 0.918 | 1.03 | 0.909 | 0.859 | 0.829 | 0.741 | 0.321 |  | 0.194 | 0.123
NCI-H647 | 0.886 | 0.971 | 1.01 | 1.03 | 1.06 | 0.925 | 0.874 | 0.161 | 0.0642 | 0.0923 | 0.985 | 1.28 |  | 1.02 | 1.18 | 0.799 | 0.888 | 0.457 | 0.0877 | 0.087
NCI-H1792 | 0.874 | 0.895 | 0.906 | 0.857 | 1.04 | 1.03 | 0.851 | 0.416 | 0.168 | 0.114 | 0.747 | 0.793 | 0.668 | 0.711 | 0.767 | 0.985 | 1 | 1.06 | 0.716 | 0.147
SK-LU-1 | 0.987 | 1.02 | 1.02 | 0.947 | 1.01 | 1.03 | 0.989 | 0.477 | 0.248 | 0.225 | 1.04 | 1.03 | 0.945 | 1.01 | 1.18 | 0.978 | 1.12 | 0.465 | 0.201 | 0.174
NCI-H1299 | 1 | 1.03 | 1.01 | 1.01 | 1.02 | 0.968 | 1.05 | 0.924 | 0.291 | 0.266 | 1.09 | 1.07 | 1.03 | 1.05 | 1.06 | 0.985 | 1.05 | 0.981 | 0.419 | 0.351
NCI-H2009 | 0.98 | 1.05 | 1 | 0.933 | 1.1 | 0.959 | 0.918 | 0.579 | 0.198 | 0.209 | 1.19 | 1.25 | 1.02 | 1.14 | 1.15 | 1.02 | 0.916 | 0.413 | 0.156 | 0.108
LOU-NH91 | 0.952 | 0.991 | 0.876 | 0.793 | 1.09 | 1.03 | 0.924 | 0.824 | 0.319 | 0.271 | 0.682 | 0.72 | 0.719 | 0.563 | 0.814 | 0.506 | 0.496 | 0.458 | 0.287 | 0.334
NCI-H2405 | 0.986 | 0.991 | 1.03 | 1.01 | 1.05 | 0.965 | 0.918 | 0.465 | 0.279 | 0.406 | 0.654 | 0.853 | 0.753 | 0.744 | 0.921 | 0.829 | 1.04 | 0.588 | 0.632 | 0.723
LCLC-97TM1 | 1.07 | 1.03 | 0.959 | 0.752 | 1.13 | 0.969 | 1.01 | 0.813 | 0.129 | 0.0948 |  | 0.24 | 0.18 | 0.235 | 0.257 | 0.658 | 0.408 | 0.0735 | 0.0639 | 0.0648
NCI-H596 | 0.99 | 0.97 | 1.02 | 1.02 | 1.01 | 0.963 | 1.11 | 0.747 | 0.402 | 0.286 | 0.523 | 0.448 | 0.405 | 0.479 | 0.498 | 1.09 | 1.18 | 0.759 | 0.733 | 0.328
NCI-H727 | 0.882 | 1.03 | 0.836 | 1.02 | 0.976 | 1.02 | 0.998 | 0.764 | 0.512 | 0.31 | 0.476 | 0.516 | 0.626 | 0.543 | 0.713 | 0.807 | 0.833 | 0.656 | 0.267 | 0.239
H3255 | 0.918 | 0.938 | 0.995 | 0.72 | 1.1 | 0.86 | 0.872 | 0.573 | 0.257 | 0.29 | 0.683 | 0.663 | 0.721 |  | 0.934 | 0.824 | 0.679 | 0.36 | 0.241 | 0.276
NCI-H1437 | 0.981 | 0.972 | 0.952 | 0.964 | 1.01 | 0.981 | 0.911 | 0.804 | 0.184 | 0.174 | 0.972 | 0.945 | 0.974 | 0.898 | 1 | 0.543 | 0.463 | 0.416 | 0.136 | 0.089
LU99A | 0.882 | 0.946 | 0.945 | 0.875 | 1.02 | 0.939 | 0.815 | 0.449 | 0.245 | 0.214 | 0.462 | 0.578 | 0.576 | 0.48 | 0.563 | 1.04 | 1.12 | 0.244 | 0.19 | 0.193
HCC-827 | 1.04 | 1.04 | 1.07 | 1.03 | 1.06 | 1.05 | 1.03 | 0.927 | 0.441 | 0.284 | 0.942 | 0.931 | 0.988 | 1.02 | 1.09 | 1.07 | 0.971 | 0.974 | 0.638 | 0.377
HCC-366 | 0.994 | 0.999 | 1 | 1.09 | 0.97 | 1.04 | 1.06 | 0.677 | 0.0316 | 0.0344 | 0.401 | 0.443 | 0.456 | 0.435 | 0.452 | 1.09 | 1.1 | 0.155 | 0.0158 | 0.0163
BEN | 0.941 | 0.928 | 0.903 | 0.904 | 0.996 | 0.948 | 0.982 | 0.671 | 0.386 | 0.355 | 0.967 | 1.05 | 1.01 | 1.02 | 1.09 | 0.61 | 0.896 | 0.43 | 0.223 | 0.287
NCI-H23 | 0.944 | 1.06 | 0.854 | 0.957 | 1.11 | 0.926 | 0.797 | 0.179 | 0.141 | 0.17 | 0.759 | 0.871 |  | 0.657 | 0.804 | 1.14 | 0.885 | 0.182 | 0.117 | 0.139
201T | 0.973 | 1 | 0.958 | 0.988 | 1.03 | 0.996 | 0.987 | 0.977 | 0.391 | 0.255 | 1.02 | 1.04 | 1.02 | 0.999 | 1.09 | 1.11 | 1.12 | 1.07 | 1.09 | 0.367
NCI-H460 | 0.98 | 1.04 | 1.02 | 0.983 | 0.992 | 1.05 | 1.03 | 0.552 | 0.0431 | 0.0258 | 0.469 | 0.541 | 0.478 | 0.442 | 0.497 | 1.21 | 0.65 | 0.265 | 0.0115 | 0.0118
NCI-H661 | 0.966 | 1.01 | 0.97 | 0.794 | 1.01 | 1.02 | 0.95 | 0.503 | 0.327 | 0.334 | 0.609 | 0.665 | 0.886 | 0.451 | 0.797 | 0.959 | 0.868 | 0.727 | 0.191 | 0.257
HCC-15 | 0.939 | 1.1 | 0.988 | 0.93 | 1.01 | 1.04 | 0.925 | 0.466 | 0.15 | 0.146 | 0.828 | 0.965 | 0.875 | 0.919 | 0.97 | 1.01 | 0.96 | 0.902 | 0.542 | 0.114
NCI-H1563 | 0.949 | 0.978 | 1 | 0.94 | 0.982 | 0.985 | 1.16 | 0.924 | 0.733 | 0.573 | 0.859 | 0.939 | 0.948 | 0.833 | 0.955 | 0.935 | 0.802 | 0.842 | 0.563 | 0.683
ABC-1 | 0.759 | 0.886 | 0.686 | 0.955 | 0.855 | 0.892 | 0.879 | 0.212 | 0.395 | 0.265 | 0.839 | 0.982 | 1.11 | 0.953 | 1 | 0.252 | 0.29 | 0.265 | 0.242 | 0.213
LCLC-103H | 0.984 | 1.01 | 0.896 | 1.05 | 0.952 | 0.997 | 1.05 | 0.961 | 0.491 | 0.197 | 0.929 | 0.928 | 1.07 | 0.925 | 0.993 | 1.05 | 1.07 | 0.813 | 0.986 | 0.19
NCI-H441 | 1.04 | 1.12 | 1.03 | 0.914 | 1.04 | 0.874 | 0.503 | 0.281 | 0.191 | 0.224 | 0.536 | 0.648 | 0.866 | 0.767 | 0.901 | 0.333 | 0.719 | 0.209 | 0.152 | 0.177
EPLC-272H | 0.96 | 0.951 | 1.06 | 0.86 | 1.07 | 0.852 | 0.707 | 0.117 | 0.26 | 0.0971 | 0.854 | 0.88 | 0.964 | 0.928 | 0.88 | 0.939 | 0.891 |  | 0.786 | 0.101
